Some results are limits rather than exact numbers.

Sequence of FL-SMARCA4 (P51532 whole entry): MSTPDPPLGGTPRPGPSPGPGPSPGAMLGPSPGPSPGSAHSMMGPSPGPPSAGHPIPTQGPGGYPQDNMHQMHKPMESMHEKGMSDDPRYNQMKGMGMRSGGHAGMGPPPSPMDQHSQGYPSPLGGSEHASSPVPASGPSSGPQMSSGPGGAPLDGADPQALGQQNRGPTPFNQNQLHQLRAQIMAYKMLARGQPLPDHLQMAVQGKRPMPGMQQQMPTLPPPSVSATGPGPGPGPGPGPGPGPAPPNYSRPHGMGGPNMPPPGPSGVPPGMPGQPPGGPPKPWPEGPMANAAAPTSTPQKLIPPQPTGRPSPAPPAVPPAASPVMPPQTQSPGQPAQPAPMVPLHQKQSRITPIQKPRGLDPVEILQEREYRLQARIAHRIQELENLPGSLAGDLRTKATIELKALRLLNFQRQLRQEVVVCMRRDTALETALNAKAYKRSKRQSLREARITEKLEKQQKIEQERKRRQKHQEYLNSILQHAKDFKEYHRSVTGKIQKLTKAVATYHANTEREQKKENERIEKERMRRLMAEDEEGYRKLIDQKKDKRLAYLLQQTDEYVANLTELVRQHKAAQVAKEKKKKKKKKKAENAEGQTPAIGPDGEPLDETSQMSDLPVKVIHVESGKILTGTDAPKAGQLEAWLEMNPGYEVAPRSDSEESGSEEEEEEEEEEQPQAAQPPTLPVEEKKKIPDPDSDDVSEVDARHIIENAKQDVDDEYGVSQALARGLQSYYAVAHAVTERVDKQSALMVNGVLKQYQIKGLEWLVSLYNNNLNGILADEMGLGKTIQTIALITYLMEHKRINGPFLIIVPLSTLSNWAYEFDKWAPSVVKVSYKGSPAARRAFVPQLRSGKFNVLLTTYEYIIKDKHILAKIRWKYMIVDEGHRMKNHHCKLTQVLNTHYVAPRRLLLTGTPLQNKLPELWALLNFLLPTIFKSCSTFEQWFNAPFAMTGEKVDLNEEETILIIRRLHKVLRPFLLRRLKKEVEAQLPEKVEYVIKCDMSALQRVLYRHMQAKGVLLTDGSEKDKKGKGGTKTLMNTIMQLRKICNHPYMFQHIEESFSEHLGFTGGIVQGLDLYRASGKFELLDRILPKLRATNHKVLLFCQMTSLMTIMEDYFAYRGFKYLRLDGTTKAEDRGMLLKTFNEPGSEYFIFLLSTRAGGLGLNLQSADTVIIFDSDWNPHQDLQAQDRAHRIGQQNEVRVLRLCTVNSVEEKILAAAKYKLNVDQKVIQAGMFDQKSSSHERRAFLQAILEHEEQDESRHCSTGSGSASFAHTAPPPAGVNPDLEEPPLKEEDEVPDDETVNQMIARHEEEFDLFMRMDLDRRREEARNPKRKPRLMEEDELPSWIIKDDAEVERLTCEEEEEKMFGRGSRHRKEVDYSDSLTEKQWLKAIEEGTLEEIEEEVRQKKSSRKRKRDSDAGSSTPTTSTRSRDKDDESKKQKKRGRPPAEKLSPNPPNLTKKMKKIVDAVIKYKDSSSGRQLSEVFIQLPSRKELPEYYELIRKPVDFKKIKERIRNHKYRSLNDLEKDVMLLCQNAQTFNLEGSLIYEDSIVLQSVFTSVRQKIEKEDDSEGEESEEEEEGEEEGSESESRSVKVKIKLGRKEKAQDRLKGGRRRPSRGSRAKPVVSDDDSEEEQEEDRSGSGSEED

For one assay, the target named is T1, FL-SMARCA2 (full-length human SMARCA2 isoform 1) (Homo sapiens, UniProt P51531).
T1 construct: FLAG tag (YKDDDDK) (C); made in house; host or cells: Sf21 insect cells (baculovirus, pFastBacI)
T1 sequence (P51531 with tags, fused parts or gaps): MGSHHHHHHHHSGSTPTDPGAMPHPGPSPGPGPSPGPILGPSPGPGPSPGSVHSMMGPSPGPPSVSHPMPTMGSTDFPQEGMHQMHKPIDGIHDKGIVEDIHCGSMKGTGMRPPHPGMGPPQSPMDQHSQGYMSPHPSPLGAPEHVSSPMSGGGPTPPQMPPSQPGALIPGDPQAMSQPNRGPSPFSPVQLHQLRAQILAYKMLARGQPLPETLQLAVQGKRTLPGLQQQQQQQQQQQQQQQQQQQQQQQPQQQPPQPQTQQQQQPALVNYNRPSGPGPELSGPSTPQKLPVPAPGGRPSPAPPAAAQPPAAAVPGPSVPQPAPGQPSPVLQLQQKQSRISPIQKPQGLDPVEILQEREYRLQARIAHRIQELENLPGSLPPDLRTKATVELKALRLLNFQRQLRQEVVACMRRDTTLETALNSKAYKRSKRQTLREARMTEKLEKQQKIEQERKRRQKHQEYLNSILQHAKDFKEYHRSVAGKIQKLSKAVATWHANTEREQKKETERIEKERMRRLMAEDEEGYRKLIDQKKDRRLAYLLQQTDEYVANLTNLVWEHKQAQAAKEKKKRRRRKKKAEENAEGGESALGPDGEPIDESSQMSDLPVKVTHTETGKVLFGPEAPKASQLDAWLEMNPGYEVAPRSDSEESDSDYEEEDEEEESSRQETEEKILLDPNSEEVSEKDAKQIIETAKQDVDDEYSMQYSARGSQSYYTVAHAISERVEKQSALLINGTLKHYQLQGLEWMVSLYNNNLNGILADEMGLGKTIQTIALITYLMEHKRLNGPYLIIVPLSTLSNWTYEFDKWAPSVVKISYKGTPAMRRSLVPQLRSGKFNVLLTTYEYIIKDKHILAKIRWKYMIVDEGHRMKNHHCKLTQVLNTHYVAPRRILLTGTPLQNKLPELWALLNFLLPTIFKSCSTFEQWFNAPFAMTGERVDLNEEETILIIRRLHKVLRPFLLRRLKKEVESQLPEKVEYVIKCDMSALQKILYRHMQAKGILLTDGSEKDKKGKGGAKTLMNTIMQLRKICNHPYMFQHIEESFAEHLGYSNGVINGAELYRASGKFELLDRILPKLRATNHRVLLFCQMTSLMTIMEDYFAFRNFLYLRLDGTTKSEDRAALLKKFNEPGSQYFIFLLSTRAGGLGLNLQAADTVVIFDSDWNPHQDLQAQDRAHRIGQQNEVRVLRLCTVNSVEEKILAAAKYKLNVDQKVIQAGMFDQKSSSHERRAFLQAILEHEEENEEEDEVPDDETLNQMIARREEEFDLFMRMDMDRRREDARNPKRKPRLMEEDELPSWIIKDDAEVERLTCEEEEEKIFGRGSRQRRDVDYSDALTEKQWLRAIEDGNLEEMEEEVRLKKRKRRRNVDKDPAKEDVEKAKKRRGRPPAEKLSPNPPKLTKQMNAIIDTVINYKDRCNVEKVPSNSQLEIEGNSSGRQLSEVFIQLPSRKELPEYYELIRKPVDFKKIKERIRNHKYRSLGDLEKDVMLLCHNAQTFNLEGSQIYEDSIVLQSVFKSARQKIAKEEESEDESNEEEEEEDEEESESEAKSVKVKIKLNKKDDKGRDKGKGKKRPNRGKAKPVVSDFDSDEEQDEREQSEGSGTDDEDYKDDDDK
The assay is described as follows: SMARCA2 ATPase activity assay (ADP-Glo, chicken mononucleosome substrate). Type of assay: biochemical. Particulars: Table 3a.1; SMARCA2 5 nM, ATP 250 uM, mononucleosome 10 nM. From the text: Molecular Biology: Full-length human SMARCA2 isoform 1 (P51531) transcript clone was amplified from a cDNA library incorporating an N-terminal HIS tag ([…]) fused directly to Ser2 of SMARCA2 and a C-FLAG tag (YKDDDDK) fused directly to Glu1590 of SMARCA2. The amplified gene was subcloned into pFastBacI (Life Technologies).
Protein Expression: Recombinant baculovirus were generated and protein over-expression was accomplished by infecting exponentially growing Sf21 insect cell culture at 1.24×10^6 cell/ml with an MOI of 0.1. Infections were carried out for 76 hours, harvested by centrifugation, and stored at −80° C. for purification.
Expressed full-length SMARCA2 was purified from cell paste by FLAG affinity chromatography followed by anion exchange chromatography. The protein was dialyzed into a storage buffer containing 25 mM HEPES, 300 mM KCl, 10% Glycerol, pH 7.9, 1 mM TCEP and 0.01% Tween-20. The purity of the protein was measured as 74% using micro-capillary based gel electrophoresis.
Regarding `CCn1cc(NC(=O)c2ccc3c(c2)OCO3)ccc1=O` [Compound 15a], the half-inhibitory concentration (IC50) was > 50 µM.
Turning to `CCn1cc(NC(=O)c2cc3ccccc3s2)ccc1=O` [Compound 36a], the 50% inhibitory concentration (IC50) was > 50 µM.
Same read-out and setting: the same measure for `CCn1cc(NC(=O)c2cccc(C(F)(F)F)n2)ccc1=O` [Compound 57a]: > 50 µM.
In the case of `CCC(CC)N1CC(C(=O)Nc2cc(Cl)c(=O)n(C)c2)CC1=O` (centres unmarked) [Compound 12a], the IC50 is > 50 µM.
The same measure, in the same setting: then `CCn1cc(NC(=O)c2ccc(=O)n(-c3ccccc3F)n2)ccc1=O` [Compound 1a], with > 50 µM; and `CCn1cc(NC(=O)c2cccnc2)ccc1=O` [Compound 14a], with > 50 µM.

The assay is the same for the next values; noted with them: Table 3b.1; SMARCA2 5 nM, ATP 250 uM, mononucleosome 10 nM.
Turning to `Cc1c(Cl)cccc1C(=O)Nc1c[nH]c(=O)c(C)c1` [Compound 2b], the IC50 was > 50 µM.
Same read-out and setting: then `CCn1cc(NC(=O)c2ccc(F)c(Cl)c2)ccc1=O` [Compound 8b], with > 50 µM; and `CC(=O)Nc1ccc(C(=O)Nc2cc(F)c(=O)n(CCF)c2)cc1Cl` [Compound 22b], with > 50 µM.
Compound `O=C(Nc1cc(F)c(=O)n(CCF)c1)c1ccc(Cl)c(Cl)c1` [Compound 17b] yielded an IC50 of 0.645 µM.

Still in this assay, the particulars now being: Table 3c.1; ATPase assay, enzyme 5 nM, ATP 250 uM, chicken mononucleosome 10 nM, 30 min preincubation.
On to `O=C(Nc1cc(F)c(=O)n(CC(F)F)c1)c1cc(C2CN(c3ccncc3)C2)c(Cl)s1` [Compound 77c], for which half-maximal inhibition (IC50) was put at 6.56 µM.
Same read-out and setting: the same measure for `CN1Cc2cc(C(=O)Nc3cc(F)c(=O)n(CC(F)F)c3)sc2C(F)(F)C1` [Compound 115c]: > 50 µM; for `O=C(Nc1cc(C#CC(F)(F)F)c(=O)n(CC(F)F)c1)c1cc(F)c(Cl)s1` [Compound 26c]: 5.41 µM.
In the case of `Cn1cncc1-c1cc(NC(=O)c2sc(C(F)(F)F)cc2Cl)cn(CC(F)F)c1=O` [Compound 38c], the IC50 was > 50 µM.
Same read-out and setting: then `O=C(Nc1cc(F)c(=O)n(CC(F)CO)c1)c1cc(Cl)c(Cl)s1` (centres unmarked) [Compound 50c], with 2.61 µM; and `O=C(Nc1cc(F)c(=O)n(CC(F)F)c1)c1cnc(C#Cc2ccncc2)s1` [Compound 33c], with 8.9 µM.
On to `CNC(=O)c1cccc(N2CC(c3cc(C(=O)Nc4cc(F)c(=O)n(CC(F)F)c4)sc3Cl)C2)c1` [Compound 176c], for which the midpoint of inhibition, the IC50, lay at 9.19 µM.
Still for that read-out and setting: the same measure for `CN(C)CCc1cc(NC(=O)c2cc(F)c(Cl)s2)cn(CC(F)F)c1=O` [Compound 17c]: > 50 µM; for `O=C(Nc1cc(F)c(=O)n(CC(F)F)c1)c1cc(C#Cc2ccncc2)c(F)s1` [Compound 106c]: 0.028 µM.
With `Cn1cnc(-c2cc(NC(=O)c3cc(Cl)c(C(F)(F)F)s3)cn(CC(F)F)c2=O)c1` [Compound 91c], the half-inhibitory concentration (IC50) was > 50 µM.

The assay is the same for the next values; noted with them: Table 3.1; ATPase assay, enzyme 5 nM, ATP 250 uM, chicken mononucleosome 10 nM, 30 min preincubation.
`O=C(Nc1ccc(=O)n(CCF)c1)c1cc(Cl)c(Cl)[nH]1` [Compound 157] yielded a 50% inhibitory concentration (IC50) of 1.5 µM.
Still for that read-out and setting: then `CCn1cc(NC(=O)c2cc(Cl)c(Cl)s2)cc(OCCN2CCOCC2)c1=O` [Compound 122], with > 50 µM.
On the same count and under the same terms, the same measure for `O=C(Nc1cc(F)c(=O)n(CCc2cn[nH]c2)c1)c1cc(Cl)c(Cl)s1` [Compound 270]: > 50 µM; for `CCn1cc(NC(=O)c2csc(C(N)=O)n2)ccc1=O` [Compound 184]: > 50 µM.
In turn, `O=C(Nc1cc(F)c(=O)n(CC(F)(F)F)c1)c1cc(Cl)c(Cl)[nH]1` [Compound 169] showed an IC50 of 0.375 µM.

A further assay has as its target FL-SMARCA4 (Homo sapiens, UniProt P51532). The assay is described as follows: SMARCA4 ATPase activity assay (ADP-Glo, chicken mononucleosome substrate). Conditions: FL-SMARCA4 IC50, Table 3a.2; SMARCA4 5 nM, ATP 250 uM, mononucleosome 10 nM.
Consider `CCn1cc(NC(=O)c2ccc3c(c2)OCO3)ccc1=O` [Compound 15a], for which the half-maximal inhibitory concentration (IC50) is > 50 µM.
For the compound `CCn1cc(NC(=O)c2cc3ccccc3s2)ccc1=O` [Compound 36a], the half-maximal inhibitory concentration (IC50) was > 50 µM.
Same read-out and setting: the same measure for `CCn1cc(NC(=O)c2cccc(C(F)(F)F)n2)ccc1=O` [Compound 57a]: > 50 µM.
Regarding `CCC(CC)N1CC(C(=O)Nc2cc(Cl)c(=O)n(C)c2)CC1=O` (centres unmarked) [Compound 12a], the IC50 is > 50 µM.
As for `CCn1cc(NC(=O)c2ccc(=O)n(-c3ccccc3F)n2)ccc1=O` [Compound 1a], the half-maximal inhibitory concentration (IC50) was > 50 µM.
On the same count and under the same terms, then `CCn1cc(NC(=O)c2cccnc2)ccc1=O` [Compound 14a], with > 50 µM.

The same assay, now with this note: FL-SMARCA4 IC50, Table 3b.2; SMARCA4 5 nM, ATP 250 uM, mononucleosome 10 nM.
For `Cc1c(Cl)cccc1C(=O)Nc1c[nH]c(=O)c(C)c1` [Compound 2b], the IC50 was > 50 µM.
Regarding `CCn1cc(NC(=O)c2ccc(F)c(Cl)c2)ccc1=O` [Compound 8b], the half-inhibitory concentration (IC50) is > 50 µM.
The same measure, in the same setting: then `CC(=O)Nc1ccc(C(=O)Nc2cc(F)c(=O)n(CCF)c2)cc1Cl` [Compound 22b], with > 50 µM.
Same read-out and setting: then `O=C(Nc1cc(F)c(=O)n(CCF)c1)c1ccc(Cl)c(Cl)c1` [Compound 17b], with 4.78 µM.

Staying with this assay, now noted: FL-SMARCA4 IC50, Table 3.2; ATPase assay, enzyme 5 nM, ATP 250 uM, chicken mononucleosome 10 nM, 30 min preincubation.
`O=C(Nc1ccc(=O)n(CCF)c1)c1cc(Cl)c(Cl)[nH]1` [Compound 157] came in with an IC50 of 11.1 µM.
In the case of `CCn1cc(NC(=O)c2cc(Cl)c(Cl)s2)cc(OCCN2CCOCC2)c1=O` [Compound 122], the concentration for half-maximal inhibition (IC50) is > 50 µM.
For `O=C(Nc1cc(F)c(=O)n(CCc2cn[nH]c2)c1)c1cc(Cl)c(Cl)s1` [Compound 270], the concentration for half-maximal inhibition (IC50) is > 50 µM.
On the same count and under the same terms, the same measure for `CCn1cc(NC(=O)c2csc(C(N)=O)n2)ccc1=O` [Compound 184]: > 50 µM.
The same measure, in the same setting: the same measure for `O=C(Nc1cc(F)c(=O)n(CC(F)(F)F)c1)c1cc(Cl)c(Cl)[nH]1` [Compound 169]: 1.41 µM.

Still in this assay, the particulars now being: FL-SMARCA4 IC>50, Table 3c.2; ATPase assay, enzyme 5 nM, ATP 250 uM, chicken mononucleosome 10 nM, 30 min preincubation.
Compound `O=C(Nc1cc(F)c(=O)n(CC(F)F)c1)c1cc(C2CN(c3ccncc3)C2)c(Cl)s1` [Compound 77c] returned an IC50 of 30.5 µM.
The same measure, in the same setting: then `CN1Cc2cc(C(=O)Nc3cc(F)c(=O)n(CC(F)F)c3)sc2C(F)(F)C1` [Compound 115c], with > 50 µM; and `O=C(Nc1cc(C#CC(F)(F)F)c(=O)n(CC(F)F)c1)c1cc(F)c(Cl)s1` [Compound 26c], with 6.27 µM.
Regarding `Cn1cncc1-c1cc(NC(=O)c2sc(C(F)(F)F)cc2Cl)cn(CC(F)F)c1=O` [Compound 38c], the concentration for half-maximal inhibition (IC50) is > 50 µM.
`O=C(Nc1cc(F)c(=O)n(CC(F)CO)c1)c1cc(Cl)c(Cl)s1` (centres unmarked) [Compound 50c] displayed a 50% inhibitory concentration (IC50) of 22.1 µM.
`O=C(Nc1cc(F)c(=O)n(CC(F)F)c1)c1cnc(C#Cc2ccncc2)s1` [Compound 33c] showed a half-maximal inhibitory concentration (IC50) of 8.15 µM.
Turning to `CNC(=O)c1cccc(N2CC(c3cc(C(=O)Nc4cc(F)c(=O)n(CC(F)F)c4)sc3Cl)C2)c1` [Compound 176c], the half-inhibitory concentration (IC50) is 9.19 µM.
Consider `CN(C)CCc1cc(NC(=O)c2cc(F)c(Cl)s2)cn(CC(F)F)c1=O` [Compound 17c], for which the IC50 was > 50 µM.
On to `O=C(Nc1cc(F)c(=O)n(CC(F)F)c1)c1cc(C#Cc2ccncc2)c(F)s1` [Compound 106c], for which 0.0533 µM corresponded to half-maximal inhibition (IC50).
`Cn1cnc(-c2cc(NC(=O)c3cc(Cl)c(C(F)(F)F)s3)cn(CC(F)F)c2=O)c1` [Compound 91c]: the IC50 was > 50 µM.

The values are drawn from US20220356174A1, “PYRIDIN-2-ONE COMPOUNDS USEFUL AS SMARCA2 ANTAGONISTS” (Epizyme, Inc., priority 2018, published 2022).
